This test concerns the target T1, human CCR7 (Homo sapiens, UniProt P32248).
T1 construct: expressed in transfected cells
T1 sequence (P32248 25-378): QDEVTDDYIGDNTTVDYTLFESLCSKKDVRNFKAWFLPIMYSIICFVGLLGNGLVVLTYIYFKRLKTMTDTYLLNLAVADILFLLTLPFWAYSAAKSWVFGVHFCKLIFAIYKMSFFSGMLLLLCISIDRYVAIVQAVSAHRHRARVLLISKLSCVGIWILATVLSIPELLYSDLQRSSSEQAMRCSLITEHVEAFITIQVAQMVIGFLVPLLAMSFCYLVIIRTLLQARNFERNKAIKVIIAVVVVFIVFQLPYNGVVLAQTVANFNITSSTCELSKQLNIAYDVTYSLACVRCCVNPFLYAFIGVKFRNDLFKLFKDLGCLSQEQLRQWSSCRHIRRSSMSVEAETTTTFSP
Nature of the test: CCL19-induced calcium mobilization assay, U87.CD4 cells expressing CCR7. The conditions noted are these: for IC50: CCL19-induced calcium signaling, read-out: IC50 [μM] block CCL19 induced calcium signaling; for Decoy – 0 Active – 1: classification of tested compounds as decoy or active. The test is classed as cell-based. The procedure: U87.CD4 cells that stably express either human CCR7, CXCR2, CCR5 or CXCR4 were seeded (20,000 cells/well) in gelatin-coated black-walled polystyrene 96-well plates with clear bottom and incubated overnight at 37°C and 5% CO2. […] Culture medium was removed, and cells were incubated for 45 min at room temperature in the dark. […] Exactly the same protocol was used to record calcium responses in Chinese hamster ovary (CHO)-K1 cells, upon stimulation with adenosine triphosphate (ATP, purchased from Sigma).

For the molecule `CN(C)[C@@H]1CCCC[C@H]1NC(=S)Nc1cc(C(F)(F)F)cc(C(F)(F)F)c1` [C039, S=C(N[C@H]1[C@H](N(C)C)CCCC1)NC2=CC(C(F)(F)F)=CC(C(F)(F)F)=C2], the IC50 was over 50 µM and the “Decoy – 0 Active – 1” value came to 0.
For `CN(C)CCNC(=S)Nc1cc(C(F)(F)F)cc(C(F)(F)F)c1` [C041, S=C(NCCN(C)C)NC1=CC(C(F)(F)F)=CC(C(F)(F)F)=C1], the IC50 is over 50 µM and the “Decoy – 0 Active – 1” value turned out to be 0.
On the same counts, the results for `COC(=O)/C(=C\NC(=S)N/C=C(/OC(=N)c1ccccc1)C(=O)OC)NC(=O)c1ccccc1` [C042, S=C(N/C=C(C(OC)=O)/NC(C1=CC=CC=C1)=O)N/C=C(C(OC)=O)/OC(C2=CC=CC=C2)=N] are over 30 µM and 0.
As to `CCOC(=O)CNC(=S)Nc1ncccc1C` [C043, CC1=CC=CN=C1NC(NCC(OCC)=O)=S], the IC50 was over 30 µM and the “Decoy – 0 Active – 1” value is 0.
For `CCOC(=O)NC(=S)Nc1ccc2nsnc2c1` [C044, S=C(NC1=CC2=NSN=C2C=C1)NC(OCC)=O] the same measures were over 30 µM and 0.
For `CCOC(=O)NC(=S)Nc1ncccn1` [C045, S=C(NC(OCC)=O)NC1=NC=CC=N1] the same measures were over 30 µM and 0.
For `CCOC(=O)NC(=S)Nc1cc(C)nc(C)n1` [C046, CC1=NC(NC(NC(OCC)=O)=S)=CC(C)=N1] the same measures were over 30 µM and 0.
As to `CCOC(=O)NC(=S)Nc1ccccn1` [C047, S=C(NC1=NC=CC=C1)NC(OCC)=O], the IC50 was over 30 µM and the “Decoy – 0 Active – 1” value worked out at 0.
Regarding `NC(=S)Nc1n[nH]c2ccccc12` [C049, S=C(NC1=NNC2=C1C=CC=C2)N], the half-maximal inhibitory concentration (IC50) was over 30 µM and the “Decoy – 0 Active – 1” value worked out at 0.
Turning to `FC(F)(F)c1cc(CNC(=S)NCc2ccccc2)cc(C(F)(F)F)c1` [C050, S=C(NCC1=CC=CC=C1)NCC2=CC(C(F)(F)F)=CC(C(F)(F)F)=C2], the IC50 is over 50 µM and the “Decoy – 0 Active – 1” value turned out to be 0.
For `CN(C)C(=O)c1cccc(NCC(=O)NCC2(c3ccccc3)CCC2)c1` [C052, CN(C)C(=O)c1cccc(NCC(=O)NCC2(c3ccccc3)CCC2)c1], the IC50 is over 10 µM and the “Decoy – 0 Active – 1” value was found to be 0.
Regarding `Cc1ccc(CN(C(=O)CNc2ccc(C(N)=O)c(C)c2)C2CC2)o1` [C053, Cc1ccc(CN(C(=O)CNc2ccc(C(N)=O)c(C)c2)C2CC2)o1], the IC50 was over 10 µM and the “Decoy – 0 Active – 1” value is listed as 0.
For `CC(=O)Nc1cccc(NCC(=O)N(Cc2ccc(C)o2)C2CC2)c1` [C054, CC(=O)Nc1cccc(NCC(=O)N(Cc2ccc(C)o2)C2CC2)c1] the same measures were over 10 µM and 0.
For `CNC(=O)c1ccc(C=CC(=O)N(C2CC2)C(C)c2ccco2)cc1` (stereo not drawn) [C055, CNC(=O)c1ccc(C=CC(=O)N(C2CC2)C(C)c2ccco2)cc1] the same measures were over 10 µM and 0.
`Cc1ccc(C(NC(=O)Nc2ccc(C(N)=O)c(Cl)c2)C(C)(C)C)o1` (stereo not drawn) [C056, Cc1ccc(C(NC(=O)Nc2ccc(C(N)=O)c(Cl)c2)C(C)(C)C)o1]: the IC50 is over 10 µM and the “Decoy – 0 Active – 1” value came to 0.
For `Cc1ccc(NCC(=O)NCc2ccco2)cc1C(=O)N(C)C` [C057, Cc1ccc(NCC(=O)NCc2ccco2)cc1C(=O)N(C)C] the same measures were over 10 µM and 0.
Take `Cc1ccc(C(C)NC(=O)C(=O)Nc2cc(C(=O)N(C)C)ccc2C)o1` (stereo not drawn) [C058, Cc1ccc(C(C)NC(=O)C(=O)Nc2cc(C(=O)N(C)C)ccc2C)o1]: the IC50 was over 10 µM and the “Decoy – 0 Active – 1” value was determined as 0.
For `CNC(=O)c1ccc(C=CC(=O)N(Cc2ccsc2)C2CC2)cc1` [C059, CNC(=O)c1ccc(C=CC(=O)N(Cc2ccsc2)C2CC2)cc1] the same measures were over 10 µM and 0.
Regarding `Cc1cc(NCC(=O)N(C)Cc2ccco2)ccc1C(=O)N(C)C` [C060, Cc1cc(NCC(=O)N(C)Cc2ccco2)ccc1C(=O)N(C)C], the IC50 is over 10 µM and the “Decoy – 0 Active – 1” value was found to be 0.
For `CN(C)C(=O)c1ccc(Cl)c(NCC(=O)N(C)Cc2ccco2)c1` [C061, CN(C)C(=O)c1ccc(Cl)c(NCC(=O)N(C)Cc2ccco2)c1] the same measures were over 10 µM and 0.
For `CC(=O)c1cccc(NC(=O)NC(c2ccc(C)o2)C(C)(C)C)c1` (stereo not drawn) [C062, CC(=O)c1cccc(NC(=O)NC(c2ccc(C)o2)C(C)(C)C)c1] the same measures were over 10 µM and 0.
On the same counts, the results for `CCNC(=O)c1cccc(NC(=O)CN(Cc2ccco2)C2CCCC2)c1` [C063, CCNC(=O)c1cccc(NC(=O)C[NH+](Cc2ccco2)C2CCCC2)c1] are over 10 µM and 0.
As to `CN(C)C(=O)c1cc(NCC(=O)NCc2ccco2)ccc1F` [C064, CN(C)C(=O)c1cc(NCC(=O)NCc2ccco2)ccc1F], the IC50 was over 10 µM and the “Decoy – 0 Active – 1” value was 0.
For `Cc1ccc(N=C(N)C(N)=Nc2ccc(C)cc2)cc1` [C065, Cc1ccc([NH+]=C(N)C(N)=[NH+]c2ccc(C)cc2)cc1] the same measures were over 10 µM and 0.
On to `CCCNC(=O)CNc1ccc(C)c(C(=O)N(C)C)c1` [C066, CCCNC(=O)CNc1ccc(C)c(C(=O)N(C)C)c1], for which the IC50 was over 10 µM and the “Decoy – 0 Active – 1” value stood at 0.
For `NC(=O)c1cc(NCC(=O)NCc2ccco2)ccc1Cl` [C067, NC(=O)c1cc(NCC(=O)NCc2ccco2)ccc1Cl] the same measures were over 10 µM and 0.
`N=C(Nc1ccccc1)C(N)=Nc1ccccc1` [C068, NC(=[NH+]c1ccccc1)C(=[NH2+])Nc1ccccc1]: the IC50 was over 10 µM and the “Decoy – 0 Active – 1” value is reported as 0.
Regarding `CCc1ccc(C(NC(=O)C(=O)Nc2cccnc2C)C(C)(C)C)o1` (stereo not drawn) [C069, CCc1ccc(C(NC(=O)C(=O)Nc2cccnc2C)C(C)(C)C)o1], the IC50 was over 10 µM and the “Decoy – 0 Active – 1” value was found to be 0.
For `CN(C)CC(C)(C)CNC(=O)C(=O)Nc1cccc(C(=O)N(C)C)c1` [C070, CN(C)C(=O)c1cccc(NC(=O)C(=O)NCC(C)(C)C[NH+](C)C)c1] the same measures were over 10 µM and 0.
For `Cc1ccc(NC=C2C(=O)CC(c3ccco3)CC2=O)cc1` (stereo not drawn) [C071, Cc1ccc(NC=C2C(=O)CC(c3ccco3)CC2=O)cc1] the same measures were over 10 µM and 0.
Take `CCNC(=O)CNc1ccc(C)c(C(=O)N(C)C)c1` [C072, CCNC(=O)CNc1ccc(C)c(C(=O)N(C)C)c1]: the IC50 is over 10 µM and the “Decoy – 0 Active – 1” value came to 0.
`CC1CCCCN1C(=O)CNc1ccc(Cl)c(C(=O)N(C)C)c1` (stereo not drawn) [C073, CC1CCCCN1C(=O)CNc1ccc(Cl)c(C(=O)N(C)C)c1]: the IC50 is over 10 µM and the “Decoy – 0 Active – 1” value came out at 0.
As for `CC1CCCCN1C(=O)CNc1cc(C(=O)N(C)C)ccc1Cl` (stereo not drawn) [C074, CC1CCCCN1C(=O)CNc1cc(C(=O)N(C)C)ccc1Cl], the IC50 is over 10 µM and the “Decoy – 0 Active – 1” value is listed as 0.
For `CN(C)C(=O)c1cccc(NCC(=O)N(C)C2CCCCC2)c1` [C075, CN(C)C(=O)c1cccc(NCC(=O)N(C)C2CCCCC2)c1] the same measures were over 10 µM and 0.
For `CN(C)C(=O)c1cccc(NC(=O)NCCc2ccccn2)c1` [C076, CN(C)C(=O)c1cccc(NC(=O)NCCc2ccccn2)c1] the same measures were over 10 µM and 0.
Regarding `N=C(Nc1ccc(Br)cc1)C(N)=Nc1ccc(Br)cc1` [C077, NC(=[NH+]c1ccc(Br)cc1)C(=[NH2+])Nc1ccc(Br)cc1], the IC50 was over 10 µM and the “Decoy – 0 Active – 1” value worked out at 0.
For `Cc1ccc(NC2=NC(=O)SC2=Cc2ccco2)cc1` [C078, Cc1ccc(NC2=[NH+]C(=O)SC2=Cc2ccco2)cc1] the same measures were over 10 µM and 0.
In the case of `CCn1cccc(NC(=O)N2CC(Cc3ccccc3Br)C2)c1=O` [C079, CCn1cccc(NC(=O)N2CC(Cc3ccccc3Br)C2)c1=O], the IC50 is over 50 µM and the “Decoy – 0 Active – 1” value worked out at 0.
Regarding `Cc1cccnc1C1(CNc2cc(N3CCC[C@H](CO)C3)ncn2)CC1` [C080, Cc1cccnc1C1(CNc2cc(N3CCC[C@H](CO)C3)ncn2)CC1], the IC50 was over 50 µM and the “Decoy – 0 Active – 1” value was 0.
Turning to `O=C(NCc1ccccc1)c1cn(C2CN(C(=O)C3CC3)C2)nn1` [C081, O=C(NCc1ccccc1)c1cn(C2CN(C(=O)C3CC3)C2)nn1], the half-inhibitory concentration (IC50) was over 50 µM and the “Decoy – 0 Active – 1” value amounted to 0.
Take `CCOC(=O)c1c(C)c(CCC(=O)N[C@H](C)c2ccccc2)c(C)n1C` [C082, CCOC(=O)c1c(C)c(CCC(=O)N[C@H](C)c2ccccc2)c(C)n1C]: the IC50 is over 50 µM and the “Decoy – 0 Active – 1” value worked out at 0.
In the case of `Cc1cccc(CN2CCC[C@H](Nc3ccc(C)c(C)c3)C2)n1` [C083, Cc1cccc(C[N@H+]2CCC[C@H](Nc3ccc(C)c(C)c3)C2)n1], the IC50 is over 50 µM and the “Decoy – 0 Active – 1” value is given as 0.

The values above are taken from paper PMC8972196, “A Set of Experimentally Validated Decoys for the Human CC Chemokine Receptor 7 (CCR7) Obtained by Virtual Screening” (Frontiers in Pharmacology, 2022).
